# Data reported in patent publication US12692289B2, “Tumor-specific peptide antigens for ovarian cancer and uses thereof” (UNIVERSITE DE MONTREAL, priority 2019, dated 2026).
# Peptide text beside a SMILES is read from it.
# Test system: TCGA-OV cohort
# Assay: TCGA-OV cohort analysis: survival and immune cell scores by aeTSA RNA expression and HLA allotype
# Design: species or system human
# Settings: immune cell scores from RNA-Seq, ANOVA, p<0.05
# From the text: Clinical and genomic data from TCGA. Processed and normalized level 3 data with hg38 for HM27 methylation, DNA copy number variation, RNA-Seq gene expression as well as the clinical data were downloaded from the TCGA open-access database using the R package ‘TCGAbiolinks’ (31). Arm-level DNA copy number alterations were downloaded from Broad Institute TCGA Genome Data Analysis Center (doi:10.7908/C1P84B9Q).
# Immune cell scores. Immune cell scores representing immune cell populations were estimated based on RNA-Seq data. For each tumor, scores were estimated as the average of log-transformed FPKM values of their marker genes as described by Danaher et al. (32).
# Statistical analyses and data visualization. Analyses and figures were performed using the R v3.5.1 or Python v2.7.6. The ‘gplots’ package in R was used to generate heatmaps of TSA coding region expression in tumors. Correlation tests were done using R function ‘cor.test’ with the Spearman's method unless otherwise indicated. Tests involving comparisons of distributions were performed with ANOVA test, and pairwise comparisons between groups were performed by Wilcoxon rank sum test. Log-rank P values for survival analysis were calculated with the ‘survival’ package.
structure (smiles),measurement,value
CSCC[C@H](NC(=O)[C@H](CCC(N)=O)NC(=O)[C@H](Cc1c[nH]cn1)NC(=O)[C@@H](NC(=O)[C@@H](N)CCCNC(=N)N)[C@@H](C)O)C(=O)N[C@@H](CC(N)=O)C(=O)N[C@H](C(=O)N[C@@H](Cc1ccccc1)C(=O)N[C@@H](CCC(N)=O)C(=O)N[C@@H](CCCNC(=N)N)C(=O)O)[C@@H](C)O (H-RTHQMNTFQR-OH; N-terminus and C-terminus assumed),correlation of aeTSA expression and relevant HLA allotype with tumor infiltration by T cells and cytotoxic T cells,positive correlation
